Two compounds from patent publication US11865103B2, “Methods of treating disorders associated with glycosylation defective proteins” (CASE WESTERN RESERVE UNIVERSITY, priority 2016, dated 2024) can be followed below.

Data set [1] concerns hCLRN1^N48K-YFP; clrn1^+/+ larvae. Put plainly: Larval survival/lethality by TG or ART dose and treatment duration. Format: in vivo, zebrafish. The following applies: TG dosages higher than 1 μM or longer treatment duration. How it is done:
Thapsigargin (TG, 1 mg, Sigma-Aldrich, #T9033) stock in 100% DMSO was diluted in E3 medium to make the required final concentration of the drug. Five different concentrations that were earlier reported to induce ER stress and are non-toxic or lower lethal dose (LD50) in the zebrafish (0.1, 0.5, 1.0, 2.5, 5 μM concentrations) were used in this study. A total of 25 larvae per dosage and treatment duration from the genotypes hCLRN1^N48K-YFP; clrn1^+/+ and hCLRN1-YFP; clrn1^+/+, no older than 72 hours post fertilization (hpf) at the start of the experiment, were placed in a well of 12-well uncoated culture plate (BD Falcon, Canaan, CT). […] Unadjusted 1 micron middle section images of four hair bundles per ML1 neuromast of larvae from TG treated and untreated groups were analyzed using Image J software version v. […] Quantification of YFP fluorescence intensity was carried out as described in the previous experiment for unconventional trafficking of hCLRN1^N48K-YFP by hGRASP55 cargos. […]
Arthemisinin (ART, 100 mg, Sigma-Aldrich, #361593) in 100% DMSO was diluted in E3 medium to make the final concentration. […] Quantification of YFP fluorescence intensity was carried out as described in the previous experiment for unconventional trafficking of hCLRN1^N48K-YFP by hGRASP55 cargos. […]

Data set [2] shares this test system. The description is as above. In kind it is in vivo, zebrafish. Set-up: key: ‘S’ =Surviving; ‘L’ = Lethal; ‘S/L’ Larvae surviving with apoptosis/necrosis of hair cells. How it is done: Thapsigargin (TG, 1 mg, Sigma-Aldrich, #T9033) stock in 100% DMSO was diluted in E3 medium to make the required final concentration of the drug. Five different concentrations that were earlier reported to induce ER stress and are non-toxic or lower lethal dose (LD50) in the zebrafish (0.1, 0.5, 1.0, 2.5, 5 μM concentrations) were used in this study. A total of 25 larvae per dosage and treatment duration from the genotypes hCLRN1^N48K-YFP; clrn1^+/+ and hCLRN1-YFP; clrn1^+/+, no older than 72 hours post fertilization (hpf) at the start of the experiment, were placed in a well of 12-well uncoated culture plate (BD Falcon, Canaan, CT). For ER stress induction, larvae were incubated in different dosage of TG from 1 hr to overnight at 28.5° C., followed by three times wash with E3 medium at 28.5° C. (Table 2) and hair cells from the hCLRN1^N48K-YFP; clrn1^+/+ and hCLRN1-YFP; clrn1^+/+ lines were examined for the respective protein distribution pattern in the hair cell bundle and the cell body. Live confocal images of ‘O’ and ‘ML1’ neuromasts per larvae were capture using Leica SP2 confocal microscope with 40× oil immersion objective. Unadjusted 1 micron middle section images of four hair bundles per ML1 neuromast of larvae from TG treated and untreated groups were analyzed using Image J software version v. 1.48 (FIG. 4). The hair bundle trafficked amount of hCLRN1^N48K protein corresponds to the change in YFP intensity in the hair bundle in the TG treated larvae. Quantification of YFP fluorescence intensity was carried out as described in the previous experiment for unconventional trafficking of hCLRN1^N48K-YFP by hGRASP55 cargos. […] Student's t-test was used to confirm the observed changes in the YFP intensity in the hair bundles of TG treatment compared to untreated hCLRN1^N48K-YFP; clrn1^+/+ larvae, is significant (FIG. 4J).
Arthemisinin (ART, 100 mg, Sigma-Aldrich, #361593) in 100% DMSO was diluted in E3 medium to make the final concentration. Five different concentrations within the range of reported ER stress inducing level in the zebrafish (0.1, 0.25, 0.4, 0.5, and 1 μM concentrations) were used in this study. A total of 25 larvae, no older than 72 hpf at the start of the experiment, were placed in a well of 12-well uncoated culture plate (BD 35 Falcon, Canaan, CT). For ER stress induction, larvae were exposed in different dosage of ART for different duration at 28.5° C. (Table 3) and washed three times with E3 medium, and hair cells from the hCLRN1-YFP; clrn1^+/+ larvae and hCLRN1^N48K-YFP; clrn1^+/+ larvae were examined for the respective protein distribution pattern in the hair cell bundle and the cell body. Live confocal Z-stack images of otic ‘O’ and middle ‘ML’ neuromasts per larvae of hCLRN1-YFP; clrn1^+/+ larvae and hCLRN1^N48K-YFP; clrn1^+/+ genotypes from the untreated group in the E3 medium, 0.01% DMSO treatment group and ART treatment group were capture using Leica SP2 confocal microscope at 40× oil immersion objective. Hair cells from 2 otic (0) and 2 middle (ML) neuromasts per larvae were examined for the change in YFP intensity in the hair bundle and cell body. From the captured confocal images of these neuromast hair cells, unadjusted 1 micron middle section images of 4 mature hair bundles from ML1 neuromast per larvae were considered for the YFP intensity quantification in unadjusted ROI covering the middle section of each hair bundles using the imageJ software. […] The hair bundle trafficked amount of hCLRN1^N48K protein corresponds to the change in YFP intensity in the hair bundle in the ART treated larvae. Quantification of YFP fluorescence intensity was carried out as described in the previous experiment for unconventional trafficking of hCLRN1^N48K-YFP by hGRASP55 cargos. Student's t-test was used to confirm the observed changes in the YFP intensity in the hair bundles of ART treatment compared to untreated and TG treated hCLRN1^N48K-YFP; clrn1^+/+ larvae, is significant (FIG. 4J).

On to `C/C=C(/C)C(=O)O[C@H]1C(C)=C2[C@H]([C@@H]1OC(=O)CCCCCCC)[C@@](C)(OC(C)=O)C[C@H](OC(=O)CCC)[C@@]1(O)[C@H]2OC(=O)[C@@]1(C)O` [TG, Thapsigargin], for which the Lethality to larvae entry in data set [1] is given as “lethal”.

For the compound `C[C@@H]1CC[C@H]2[C@@H](C)C(=O)O[C@@H]3O[C@@]4(C)CC[C@@H]1[C@]32OO4` [ART, Artemisinin], the Larvae survival entry in data set [2] (ART 0.1 μM, exposure 1 h) was “S”; in data set [2] (ART 0.1 μM, exposure 2 h) it was “S”; in data set [2] (ART 0.1 μM, exposure 4 h), “S”; in data set [2] (ART 0.1 μM, exposure 6 h), “S”; in data set [2] (ART 0.1 μM, exposure 8 h), “S”; in data set [2] (ART 0.1 μM, exposure 10 h), “S”. Besides, the Larvae survival result in data set [2] (ART 0.1 μM, post-exposure recovery time 10 h) was “S”; in data set [2] (ART 0.1 μM, post-exposure recovery time 24 h), “S”; in data set [2] (ART 0.1 μM, post-exposure recovery time 48 h), “S”; in data set [2] (ART 0.25 μM, exposure 1 h), “S”; in data set [2] (ART 0.25 μM, exposure 2 h), “S”; in data set [2] (ART 0.25 μM, exposure 4 h), “S”. The Larvae survival result is listed as “S” in data set [2] (ART 0.25 μM, exposure 6 h); “S” in data set [2] (ART 0.25 μM, exposure 8 h); “S” in data set [2] (ART 0.25 μM, exposure 10 h); “S” in data set [2] (ART 0.25 μM, post-exposure recovery time 10 h); “S” in data set [2] (ART 0.25 μM, post-exposure recovery time 24 h); “S” in data set [2] (ART 0.25 μM, post-exposure recovery time 48 h). Moreover, the Larvae survival result in data set [2] (ART 0.4 μM, 4 hours exposure group, post-exposure recovery time 10 h) was “S”; in data set [2] (ART 0.4 μM, 4 hours exposure group, post-exposure recovery time 24 h), “S”; in data set [2] (ART 0.4 μM, 4 hours exposure group, post-exposure recovery time 48 h), “S”; in data set [2] (ART 0.4 μM, exposure 1 h), “S”; in data set [2] (ART 0.4 μM, exposure 2 h) it was “S”; in data set [2] (ART 0.4 μM, exposure 4 h), “S”. Also, the Larvae survival entry in data set [2] (ART 0.4 μM, exposure 6 h) is recorded as “S/L”.
